Reference: US12466821B2 (Novartis AG, priority 2018, dated 2025)

Legend:
[1] = molecular target: human CMV DNA polymerase UL54 (Human cytomegalovirus (strain AD169) (HHV-5) (Human herpesvirus 5), UniProt P08546); assay: CMV polymerase biochemical assay (molecular beacon-based)
Outline: (§1)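 Full-length wild-type N-terminal MBP-fusion polymerases from sf9 cells were used at 100 pM (CMV) or 625 pM (HSV) in Tris pH 7.5, 10 mM MgCl2, and preincubated with inhibitor for 30 min at RT. Reactions with 1.25 uM each dNTP, 200 nM primer and 100 nM molecular beacon ran 60 min (CMV) or 20 min (HSV) at RT. Fluorescence was read at 480/535 nm and IC50 derived.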

[2] = molecular target: human HSV DNA polymerase UL30 (Human herpesvirus 1 (strain 17) (HHV-1) (Human herpes simplex virus 1), UniProt P04293); assay: HSV polymerase biochemical assay (molecular beacon-based)
Outline: as §1

[3] = system: EBV (SNU-719 gastric carcinoma cell line latently infected with EBV); assay: EBV qPCR assay (cellular herpesvirus replication); assay type: cell-based; settings: human gammaherpesvirus 4; SNU-719 cells, TPA/NaB reactivation, qPCR after 72 hrs; n>3, value (+/- spread)
Method: For all viral assays, 10 mM DMSO stock compound solutions were serially diluted in DMSO at 3.16 fold dilutions in 96-well clear round bottom plates. Compounds were then diluted in assay media at 1:20 and subsequently 10 μL of these dilutions were added to cells for final compound concentrations ranging either from 0.0159 μM to 50 μM in 0.5% DMSO/assay media, or from 0.00318 to 10 μM in 0.5% DMSO/assay media.
EBV qPCR assay: The assay uses the SNU-719 gastric carcinoma cell line which is latently infected with EBV. Upon reactivation with chemical reagents, EBV DNA copy number was measured by qPCR. Viral replication in the presence or absence of compounds was measured according to the following procedure: SNU-719 cells were plated at 2×10^4 cells/well in 96-well clear bottom plates, black in 80 μL/well of assay media: 2% FBS in RPMI 1640 (ATCC cat # 30-2001). […]
qPCR reactions were carried out in a total reaction volume of 20 μL, using the QuantiFast® Multiplex PCR kit (Qiagen cat #204656). Eighteen μL of qPCR master mix (10 μL of 2× QuantiFast® Multiplex PCR Master Mix, 1 μL of 20× Primer/Probe Mix specific to housekeeping gene, 1 μL of 20× Primer/Probe Mix specific to viral gene, 6 μL of H2O) was distributed into each well of a 384 well plate. […]
Relative quantification was calculated with the ΔΔCT Method, and then converted into percent inhibitions. […]

N#Cc1ccc(CNC(=O)c2ccc3n(c2=O)CCN(CC2(S(=O)(=O)C4CC4)CC2)C3=O)cc1 [Example 1, N-(4-cyanobenzyl)-2-((1-(cyclopropylsulfonyl)cyclopropyl)methyl)-1,6-dioxo-2,3,4,6-tetrahydro-1H-pyrido[1,2-a]pyrazine-7-carboxamide]
IC50 [1]: 0.8 nM
IC50 [2]: 27.3 nM
EC50 [3]: 12 nM
